Reference: patent US5434165A, “Nootropic agents, compositions of, and method of use thereof” (Sanawa Kagaku Kenkyusho Company, Ltd., priority 1991, dated 1995)
Where two headings read alike, the source gives them in different places.

Tests used:
[1] = molecular target: T1, 3H-Pirenzepine bonding to rat brain homogenate (Rattus norvegicus, UniProt P08482); experiment: 3H-Pirenzepine bonding inhibition test, rat brain homogenate (Test Example 2); format: binding, SD male rat
T1 construct: to obtain a rat brain homogenate for testing; from tissue; host or cells: brain without cerebellum, SD male rat (homogenate, 1000×g supernatant)
T1 sequence (P08482 1-460): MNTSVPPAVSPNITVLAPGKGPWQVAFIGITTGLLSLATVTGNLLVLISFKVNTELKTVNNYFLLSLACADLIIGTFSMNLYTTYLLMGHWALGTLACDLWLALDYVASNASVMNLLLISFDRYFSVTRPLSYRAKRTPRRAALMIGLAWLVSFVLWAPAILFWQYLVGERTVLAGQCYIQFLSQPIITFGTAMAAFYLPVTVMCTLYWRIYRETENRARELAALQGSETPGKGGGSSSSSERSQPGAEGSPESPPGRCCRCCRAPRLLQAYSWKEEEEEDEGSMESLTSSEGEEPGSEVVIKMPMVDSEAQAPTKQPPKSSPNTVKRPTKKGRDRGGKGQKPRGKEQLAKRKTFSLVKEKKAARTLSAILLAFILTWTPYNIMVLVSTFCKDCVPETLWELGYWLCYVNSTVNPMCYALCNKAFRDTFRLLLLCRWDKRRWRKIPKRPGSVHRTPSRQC
Protocol: A rat brain homogenate was prepared according to the method of Yamamura and Synder (Proc. Nat. Acad. Sci. USA, Vol. 71, pp. 1725-1729 (1974)).
An SD male rat was sacrificed by decapitation, and the brain excised. After the cerebellum was removed, 0.32 M sucrose was added thereto in an amount 10 times the weight of the brain under ice cooling, followed by homogenizing in a Potter-Elvehjem glass homogenizer. The resulting homogenate was centrifuged at 1000×g for 10 minutes, the precipitate removed, and the supernatant further homogenized with a Polytron (manufactured by KINEMATICA) to obtain a rat brain homogenate for testing.
The method of Flynn and Mash (J. Pharm. Exp. Therm., Vol. 250, pp. 573-581 (1989)) was followed.
A mixture consisting of 0.035 ml of the above prepared rat brain homogenate (protein content: 0.6 mg), 1 ml of a 50 mM phosphoric acid buffer (pH 7.4) containing 2.0 nM ^3 H-pirenzepine, and 1 ml of a test compound dissolved in the same buffer was allowed to react at room temperature for 60 minutes. To the reaction mixture was added 3.0 ml of the same buffer as used above as cooled with ice, and the mixture was filtered through Whatman GF/B filter paper having been previously impregnated with a 0.1% polyethyleneimine solution for 60 minutes. The filter cake was washed twice with 3.0 ml of the same buffer, the filter paper taken out, an emulsion scintillator added, and the scintillation measured with a liquid scintillation counter to obtain a 50% inhibitory concentration (IC50) of the test compound on ^3 H-pirenzepine bonding to the rat brain homogenate.

[2] = test system: scopolamine-induced inhibition of memory retention; experiment: Passive avoidance learning test, scopolamine-induced memory retention defect (Test Example 1); format: in vivo, mice; conditions: 5 min after scopolamine 0.25 mg/kg i.p., remembrance test after 24 h
Protocol: A passive avoidance learning test using mice was conducted to examine whether scopolamine-induced inhibition of memory retention can be improved by the compound of the present invention.
A training box composed of a light room and a dark room having the same structure was used. The dark room is designed so that a foot shock is given to a test animal via a grid of the floor. An opening is provided on the partitioning wall of the two rooms to let animals in and out freely.
Scopolamine hydrobromide dissolved in physiological saline was intraperitoneally administered to a mouse at a dose of 0.25 mg/kg.
Five minutes after the scopolamine administration, a test compound was intraperitoneally administered to the mouse at a dose shown in Table 1 below (test group).
The animal was put in the light room. Immediately after the animal moved into the dark room, a foot shock was given until the animal returned to the light room.
After 24 hours from the training, the animal was again put in the light room, and the time required for the animal's moving to the dark room was measured up to 300 seconds.
The data from the remembrance test were analyzed to obtain a percent prolongation of the memory retention time of the test group based on that of the control group having received no test compound.

male mouse = experiment: Acute Toxicity Test (Test Example 3); format: in vivo; conditions: 100 mg/kg i.p., 5-week-old male mouse
Protocol: The compound of Example 11, suspended in 5% gum arabic, was intraperitoneally achninistered to a 5-week-old […] male mouse. General manifestation of toxicity was observed over 60 minutes after the administration, and the animal's death was observed up to 24 hours from the administration.

[3] = 2.0 nM 3H-pirenzepine, pH 7.4, room temperature, 60 min, read-out: IC50 (50% inhibitory concentration on 3H-pirenzepine bonding)

Compound	IC50 [1, 3] [nM]	IC50 [1] [nM]	Percent Prolongation (of memory retention time vs control) ([2]; dose 1000 μg/kg i.p.) [%]	also measured
CN(CC12CCCN1CCC2)c1c([N+](=O)[O-])ccc2ccccc12 [Example 18, 1-[N-(1-Azabicyclo[3.3.0]octan-5-yl)methyl-N-methylamino]-2-nitronaphthalen]	440	–	–	Percent Prolongation (of memory retention time vs control) ([2]; dose 0.01 μg/kg i.p.): 117.9%; Percent Prolongation (of memory retention time vs control) ([2]; dose 0.1 μg/kg i.p.): 115.9%
O=[N+]([O-])c1ccc(NCC23CCCN2CCC3)c2ccccc12 [Example 11, 1-(1-Azabicyclo[3.3.0]octan-5-yl)methylamino-4-nitronaphthalene]	–	900	152.6	general manifestation of toxicity (male mouse; observed over 60 minutes): neither general manifestation of toxicity nor death was observed; death (male mouse; observed up to 24 hours): neither general manifestation of toxicity nor death was observed; Percent Prolongation (of memory retention time vs control) ([2]; dose 1 μg/kg i.p.): 30.9%; Percent Prolongation (of memory retention time vs control) ([2]; dose 10 μg/kg i.p.): 91.7%; Percent Prolongation (of memory retention time vs control) ([2]; dose 100 μg/kg i.p.): 120.9%
O=[N+]([O-])c1cccc2c(NCC34CCCN3CCC4)cccc12 [Example 17, 1-(1-Azabicyclo[3.3.0]octan-5-yl)methylamino-5-nitronaphthalene]	–	800	–	–
O=[N+]([O-])c1c(NCC23CCCN2CCC3)cnc2ccccc12 [Example 6, 3-(1-Azabicyclo[3.3.0]octan-5-yl)methylamino-4-nitroquinoline]	1200	–	55.1	–
CC(C)N(CCNc1ccc([N+](=O)[O-])c2ccccc12)C(C)C [Example 14, 1-(2-Diisopropylaminoethyl)amino-4-nitronaphthalene]	900	–	–	–
O=[N+]([O-])c1ccc(NCC23CCCN2CCC3)cc1 [Example 10, 1-(1-Azabicyclo[3.3.0]octan-5-yl)methylamino-4-nitrobenzene]	–	–	26.5	–
CN(CC12CCCN1CCC2)c1ccc([N+](=O)[O-])c2ccccc12 [Example 15, 1[N-(1-Azabicyclo[3.3.0]octan-5-yl)methyl-N-methylamino]-4-nitronaphthalene]	–	40	–	Percent Prolongation (of memory retention time vs control) ([2]; dose 0.01 μg/kg i.p.): 111.6%; Percent Prolongation (of memory retention time vs control) ([2]; dose 0.1 μg/kg i.p.): 68.8%; Percent Prolongation (of memory retention time vs control) ([2]; dose 1 μg/kg i.p.): 85.2%
O=[N+]([O-])c1c2ccccc2c(NCC23CCCN2CCC3)c2ccccc12 [Example 19, 9-(1-Azabicyclo[3.3.0]octan-5-yl)methylamino-10-nitroanthracene]	1400	–	–	–
Nc1c2c(nc3ccccc13)CCCC2 [THA, 1,2,3,4-tetrahydro-9-aminoacridine, reference compound]	–	–	74.8	Percent Prolongation (of memory retention time vs control) ([2]; dose 100 μg/kg i.p.): 24.4%
